Reference: ChEMBL document CHEMBL1201862, “PubChem BioAssay data set” (2004)
Active and inactive are the calls of the source.

Experiments:
[1] = biological target: T1, Heat shock factor protein 1 (Mus musculus, UniProt P38532); assay: decrease of HSF1-responsive luciferase luminescence – cell-based, NIH3T3, dose retest, confirmation (AID 2382); format: functional;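 also: NIH3T3 fibroblasts with HSF1-driven luciferase reporter stressed by proteasome inhibitor MG132; luminescence from HSF1-driven luciferase expression after 8 hours of MG132 stress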
T1 sequence (P38532 whole entry): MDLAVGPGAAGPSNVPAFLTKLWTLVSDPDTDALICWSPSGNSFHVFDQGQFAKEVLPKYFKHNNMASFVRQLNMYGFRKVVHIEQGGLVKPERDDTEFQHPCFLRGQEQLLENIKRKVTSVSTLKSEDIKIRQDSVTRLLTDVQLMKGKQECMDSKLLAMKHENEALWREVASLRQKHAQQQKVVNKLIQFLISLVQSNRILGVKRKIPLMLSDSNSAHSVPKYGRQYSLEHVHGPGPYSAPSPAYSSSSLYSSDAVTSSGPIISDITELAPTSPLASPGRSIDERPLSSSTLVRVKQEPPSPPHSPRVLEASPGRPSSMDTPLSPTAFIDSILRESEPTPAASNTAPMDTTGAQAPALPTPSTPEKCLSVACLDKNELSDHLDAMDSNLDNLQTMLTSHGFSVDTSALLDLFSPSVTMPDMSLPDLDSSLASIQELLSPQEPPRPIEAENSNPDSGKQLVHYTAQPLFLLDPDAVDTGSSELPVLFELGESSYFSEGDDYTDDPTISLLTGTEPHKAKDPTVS

[2] = HEK-293T cell viability reduction – luminescence, B-cell screen hits, cytotoxicity control for BCR NF-kB inhibitor project, dose response (AID 489021); format: functional, cell-based;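 also: HEK-293T cells carrying an NF-kB luciferase reporter; cells exposed to compound for about 14 hours before viability readout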
[3] = biological target: T2, Cytochrome P450 3A4 (Homo sapiens, UniProt P08684);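 also: CYP3A4 tested as one member of a cytochrome P450 panel screen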
T2 sequence (P08684 whole entry): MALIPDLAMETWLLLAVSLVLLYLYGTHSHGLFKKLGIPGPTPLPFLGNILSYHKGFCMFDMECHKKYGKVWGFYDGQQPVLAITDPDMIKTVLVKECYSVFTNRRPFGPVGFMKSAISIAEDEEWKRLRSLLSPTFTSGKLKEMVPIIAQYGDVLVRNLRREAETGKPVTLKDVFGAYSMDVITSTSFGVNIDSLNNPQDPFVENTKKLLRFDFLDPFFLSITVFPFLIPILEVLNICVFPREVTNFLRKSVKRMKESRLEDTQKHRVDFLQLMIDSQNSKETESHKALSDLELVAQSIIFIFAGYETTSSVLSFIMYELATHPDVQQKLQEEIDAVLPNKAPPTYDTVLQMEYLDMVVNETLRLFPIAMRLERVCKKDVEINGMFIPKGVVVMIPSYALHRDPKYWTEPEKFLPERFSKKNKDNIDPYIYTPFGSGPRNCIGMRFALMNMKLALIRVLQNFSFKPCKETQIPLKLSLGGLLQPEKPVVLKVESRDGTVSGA

[4] = biological target: Cytochrome P450 2C19 (Homo sapiens, UniProt P33261); assay: Cytochrome panel assay with activity outcomes. Panel member name: p450-cyp2c19 Compounds with AC50 equal or less than 10 uM are considered active; format: functional; details: read-out: AC50
Sequence of Cytochrome P450 2C19 (P33261 whole entry): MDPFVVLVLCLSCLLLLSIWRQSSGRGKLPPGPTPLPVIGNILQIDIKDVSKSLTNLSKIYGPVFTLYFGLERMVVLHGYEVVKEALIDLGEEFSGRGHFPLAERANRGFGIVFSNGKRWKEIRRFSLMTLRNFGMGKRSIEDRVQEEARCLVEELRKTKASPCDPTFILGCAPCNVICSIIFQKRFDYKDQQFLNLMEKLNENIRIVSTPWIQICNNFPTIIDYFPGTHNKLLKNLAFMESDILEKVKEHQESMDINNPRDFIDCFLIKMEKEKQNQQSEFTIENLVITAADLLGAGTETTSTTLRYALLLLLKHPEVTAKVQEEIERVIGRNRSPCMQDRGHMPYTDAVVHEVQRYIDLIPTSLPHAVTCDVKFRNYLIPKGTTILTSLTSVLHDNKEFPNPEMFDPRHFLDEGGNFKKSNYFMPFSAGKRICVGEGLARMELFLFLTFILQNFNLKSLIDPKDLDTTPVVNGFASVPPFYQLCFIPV

[5] = biological target: T2, Cytochrome P450 3A4; remark: listed apart in the source
[6] = biological target: T3, Mannose-6-phosphate isomerase (Homo sapiens, UniProt P34949); assay: MPI inhibition at elevated mannose 6-phosphate – biochemical, fluorescence intensity, high mannose 6-phosphate, primary screen (AID 1220)
T3 sequence (P34949 whole entry): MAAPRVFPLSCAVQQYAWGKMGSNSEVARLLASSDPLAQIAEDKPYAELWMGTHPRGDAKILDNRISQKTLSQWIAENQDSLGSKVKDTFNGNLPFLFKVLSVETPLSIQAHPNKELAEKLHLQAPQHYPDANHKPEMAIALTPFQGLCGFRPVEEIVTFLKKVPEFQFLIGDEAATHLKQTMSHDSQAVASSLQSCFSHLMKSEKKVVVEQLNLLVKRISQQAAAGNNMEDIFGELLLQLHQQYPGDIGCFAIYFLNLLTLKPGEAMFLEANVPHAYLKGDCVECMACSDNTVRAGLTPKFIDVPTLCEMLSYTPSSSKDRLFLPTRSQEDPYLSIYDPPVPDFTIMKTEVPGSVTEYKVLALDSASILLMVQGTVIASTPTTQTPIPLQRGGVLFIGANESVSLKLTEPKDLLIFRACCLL

[7] = biological target: T1, Heat shock factor protein 1; assay: enhancement of HSF1-driven luciferase signal – cell-based, NIH3T3, luminescence, dose retest, confirmation (AID 435004); format: functional;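 also: stress induced by proteasome inhibitor MG132 added 30 min after compound; luciferase reporter driven by HSF1 response element in NIH3T3 cells; actives raise luminescence as potentiators of the MG132 stress response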
[8] = biological target: T4, Caspase-3 (Homo sapiens, UniProt P42574); format: functional;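 also: Dose-response selectivity test against caspase-3 for candidate inhibitors of sentrin-specific proteases (SENPs)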
T4 sequence (P42574 whole entry): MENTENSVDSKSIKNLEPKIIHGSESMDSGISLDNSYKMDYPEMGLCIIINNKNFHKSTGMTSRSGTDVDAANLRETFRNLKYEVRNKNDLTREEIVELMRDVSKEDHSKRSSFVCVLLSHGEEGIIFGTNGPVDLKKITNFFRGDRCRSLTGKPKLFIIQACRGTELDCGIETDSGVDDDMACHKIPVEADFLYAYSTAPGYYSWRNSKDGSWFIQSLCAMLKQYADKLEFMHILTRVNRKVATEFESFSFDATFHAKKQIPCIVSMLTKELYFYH

[9] = biological target: T5, Sentrin-specific protease 7 (Homo sapiens, UniProt Q9BQF6); format: functional;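 also: Luminescence-based dose-response confirmation of ultra-high-throughput screening hits, measuring inhibition of SENP7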
T5 sequence (Q9BQF6 whole entry): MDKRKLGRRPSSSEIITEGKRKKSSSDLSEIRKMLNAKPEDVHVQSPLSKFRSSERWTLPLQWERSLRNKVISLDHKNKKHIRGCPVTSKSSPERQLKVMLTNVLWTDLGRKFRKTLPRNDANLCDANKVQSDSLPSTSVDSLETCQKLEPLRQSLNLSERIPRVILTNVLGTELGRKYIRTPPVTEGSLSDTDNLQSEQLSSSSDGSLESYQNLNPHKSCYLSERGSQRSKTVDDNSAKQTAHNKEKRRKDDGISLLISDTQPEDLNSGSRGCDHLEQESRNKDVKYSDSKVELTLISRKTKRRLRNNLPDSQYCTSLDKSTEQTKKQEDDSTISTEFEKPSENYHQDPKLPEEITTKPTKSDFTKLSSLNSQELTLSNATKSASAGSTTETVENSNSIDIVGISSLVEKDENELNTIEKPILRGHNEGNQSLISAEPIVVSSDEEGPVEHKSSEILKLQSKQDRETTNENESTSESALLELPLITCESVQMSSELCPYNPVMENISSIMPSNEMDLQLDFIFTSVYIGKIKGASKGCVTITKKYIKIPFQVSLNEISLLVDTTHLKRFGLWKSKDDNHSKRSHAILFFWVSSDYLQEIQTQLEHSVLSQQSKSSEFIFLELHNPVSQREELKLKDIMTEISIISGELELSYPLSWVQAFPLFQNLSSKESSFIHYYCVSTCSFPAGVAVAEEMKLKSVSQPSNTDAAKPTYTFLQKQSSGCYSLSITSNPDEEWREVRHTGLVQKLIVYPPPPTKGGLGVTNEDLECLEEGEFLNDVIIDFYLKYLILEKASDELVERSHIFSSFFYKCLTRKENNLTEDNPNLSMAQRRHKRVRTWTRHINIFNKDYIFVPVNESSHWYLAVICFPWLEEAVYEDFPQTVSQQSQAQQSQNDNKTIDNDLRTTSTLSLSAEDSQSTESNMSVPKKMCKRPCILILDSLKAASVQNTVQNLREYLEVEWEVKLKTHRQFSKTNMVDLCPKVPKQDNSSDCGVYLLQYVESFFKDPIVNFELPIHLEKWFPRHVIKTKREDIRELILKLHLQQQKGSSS

[10] = biological target: T6, Sentrin-specific protease 6 (Homo sapiens, UniProt Q9GZR1); format: functional;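 also: Luminescence-based dose-response confirmatory assay of SENP6 inhibition, following up an ultra-high-throughput screen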
T6 sequence (Q9GZR1 whole entry): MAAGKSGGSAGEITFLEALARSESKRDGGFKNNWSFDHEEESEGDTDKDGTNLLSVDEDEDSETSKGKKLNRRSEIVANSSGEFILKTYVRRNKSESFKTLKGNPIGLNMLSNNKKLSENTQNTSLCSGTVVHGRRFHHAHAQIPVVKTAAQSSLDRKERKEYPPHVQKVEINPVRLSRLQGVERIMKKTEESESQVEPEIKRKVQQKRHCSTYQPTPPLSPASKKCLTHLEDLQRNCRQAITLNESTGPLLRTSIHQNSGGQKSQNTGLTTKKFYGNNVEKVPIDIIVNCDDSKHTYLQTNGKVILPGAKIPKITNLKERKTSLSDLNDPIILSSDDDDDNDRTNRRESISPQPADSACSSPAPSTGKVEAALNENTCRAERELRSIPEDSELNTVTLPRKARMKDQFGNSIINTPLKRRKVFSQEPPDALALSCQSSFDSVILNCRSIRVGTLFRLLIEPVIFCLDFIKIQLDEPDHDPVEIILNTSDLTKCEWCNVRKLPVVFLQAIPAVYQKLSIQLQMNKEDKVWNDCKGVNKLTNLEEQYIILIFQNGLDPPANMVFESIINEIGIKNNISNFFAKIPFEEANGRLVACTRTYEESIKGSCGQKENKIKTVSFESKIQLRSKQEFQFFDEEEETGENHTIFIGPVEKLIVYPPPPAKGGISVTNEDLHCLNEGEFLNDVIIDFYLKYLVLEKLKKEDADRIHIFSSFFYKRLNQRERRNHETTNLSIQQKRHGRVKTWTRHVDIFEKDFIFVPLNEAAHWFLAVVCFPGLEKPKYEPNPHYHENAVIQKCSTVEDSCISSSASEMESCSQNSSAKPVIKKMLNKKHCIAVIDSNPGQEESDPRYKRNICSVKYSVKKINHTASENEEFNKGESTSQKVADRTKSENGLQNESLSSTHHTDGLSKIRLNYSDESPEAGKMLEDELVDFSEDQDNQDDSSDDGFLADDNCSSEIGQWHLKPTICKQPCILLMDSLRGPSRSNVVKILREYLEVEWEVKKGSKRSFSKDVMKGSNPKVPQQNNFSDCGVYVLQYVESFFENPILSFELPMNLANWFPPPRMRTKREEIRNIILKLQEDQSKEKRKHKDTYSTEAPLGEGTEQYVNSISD

[11] = biological target: T7, Sentrin-specific protease 8 (Homo sapiens, UniProt Q96LD8); format: functional;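 also: luminescence read-out of SENP8 inhibition, dose-response confirmation following an ultra-high-throughput screen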
T7 sequence (Q96LD8 whole entry): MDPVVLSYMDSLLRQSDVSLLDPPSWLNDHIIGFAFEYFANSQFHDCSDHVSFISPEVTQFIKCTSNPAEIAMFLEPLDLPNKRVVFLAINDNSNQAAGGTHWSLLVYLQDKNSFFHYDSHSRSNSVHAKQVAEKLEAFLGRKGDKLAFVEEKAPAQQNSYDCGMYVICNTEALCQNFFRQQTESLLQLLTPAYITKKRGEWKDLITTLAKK

[12] = biological target: Cytochrome P450 2C9 (Homo sapiens, UniProt P11712)
Sequence of Cytochrome P450 2C9 (P11712 whole entry): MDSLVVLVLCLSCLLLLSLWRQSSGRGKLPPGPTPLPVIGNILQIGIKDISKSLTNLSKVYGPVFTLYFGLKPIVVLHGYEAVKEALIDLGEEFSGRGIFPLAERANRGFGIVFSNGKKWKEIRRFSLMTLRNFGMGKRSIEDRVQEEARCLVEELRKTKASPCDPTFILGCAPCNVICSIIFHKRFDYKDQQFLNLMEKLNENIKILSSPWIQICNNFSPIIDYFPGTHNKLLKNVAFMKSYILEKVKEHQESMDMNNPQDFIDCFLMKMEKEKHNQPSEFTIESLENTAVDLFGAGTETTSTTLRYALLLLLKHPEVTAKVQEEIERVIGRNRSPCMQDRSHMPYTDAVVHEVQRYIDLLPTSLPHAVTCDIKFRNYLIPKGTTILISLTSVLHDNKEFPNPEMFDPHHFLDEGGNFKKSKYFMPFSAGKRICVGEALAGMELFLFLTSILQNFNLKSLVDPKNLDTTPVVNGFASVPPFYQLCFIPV

[13] = system: H9c2; assay: cells; format: functional, cell-based; details: Rattus norvegicus, H9c2, Myocardium;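 also: confirmatory concentration-response retest of ultra-high-throughput screening hits for modulation of myocardial damage; cell death induced by hydrogen peroxide oxidative stress; compound pretreatment for 60 min then peroxide exposure for 2 h; potency is for protecting the cells against peroxide damage rather than for killing them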
[14] = blockers of bursicon-stimulated LGR2 cAMP reporter – cell-based, HEK293, CRE-luciferase reporter, cherry pick, set 2, dose response (AID 743343); format: functional;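 also: transfected cells were stimulated with diluted bursicon conditioned medium after compound addition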
[15] = blockade of melanocortin 4 receptor signaling – cell-based, plate reader, cherry pick, counter-screen for LGR2 antagonist project, dose response (AID 743444); format: functional;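 also: transfected HEK 293 cells stimulated with alpha-MSH peptide; potency of inhibitors of the alpha-MSH evoked signal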
[16] = system: Streptococcus sp. 'group A'; assay: Streptococcus pyogenes SK(-)GAS viability under kanamycin – luminescence, BacTiterGlo, confirmation, counter-screen for streptokinase expression inhibitor project, dose response (AID 1900); format: functional, organism-based
[17] = microbe, parasite or virus in culture; format: functional; details: Mycobacterium tuberculosis
[18] = system: Streptococcus; assay: GAS UMAA2166 growth inhibition – luminescence, BacTiterGlo, counter-screen for streptokinase expression inhibitor project, dose response (AID 1915); format: functional, organism-based;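 also: potency for reduction of bacterial viability or growth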
[19] = THP-1 cell cytotoxicity, dose response, cytotoxicity control for non-replicating M. tuberculosis project (AID 489025); format: functional
[20] = Vero E6 cell cytotoxicity, dose response, cytotoxicity control for non-replicating M. tuberculosis project, secondary assay (AID 492998); format: functional, VeroE6; details: Vero C1008
[21] = cells; format: functional

SMILES: O=C(O)CCN1C(=O)/C(=C/c2nc3ccccc3[nH]2)SC1=S
- EC50 [1]: 7.78 µM (active)
- IC50 [2]: > 80 µM (inactive)

SMILES: COc1ccc(NC(=O)N2CCC3(CC2)CCN(C(=O)c2cccc(F)c2)CC3)cc1
- AC50 [3]: inconclusive

SMILES: Cc1cc(N2CCOCC2)nc2ccc(Cc3ccc4nc(N5CCOCC5)cc(C)c4c3)cc12
- AC50 [3]: inconclusive

SMILES: O=C(NCCCN1CCC(Cc2ccccc2)CC1)C1CCN(S(=O)(=O)N2CCOCC2)CC1
- AC50 [4]: 25.1 µM (inconclusive)
- AC50 [3]: inconclusive

SMILES: CCCC(=O)N1CCN(c2ccc(NC(=O)c3ccc(OCC)c([N+](=O)[O-])c3)cc2)CC1
- AC50 [4]: 28.2 µM (inconclusive)
- AC50 [3]: inconclusive

SMILES: C[C@H](O/N=C1/[C@H]2O[C@@H]2[C@@H](O)[C@H]2[C@H]1CCn1c(=O)n(-c3ccccc3)c(=O)n12)c1cn([C@H](CO)Cc2ccccc2)nn1
- AC50 [5]: 3.98 µM (inconclusive)
- AC50 [3]: 3.98 µM (inconclusive)

SMILES: Cc1ccc(S(=O)(=O)N(C)C)cc1NC(S)=Nc1ccc2c[nH]nc2c1
- IC50 [6]: > 50 µM (not active)

SMILES: CCOc1ccccc1CNCCN1CCOCC1.Cl
- EC50 [7]: > 260 µM (inactive)
- AC50 [3]: inconclusive

SMILES: CCOc1ccc(-n2nc3cc(C)c(N)cc3n2)cc1
- IC50 [8]: 7.93 µM (active)
- IC50 [9]: 2.94 µM (active)
- IC50 [10]: 6.21 µM (active)
- IC50 [11]: 59.3 µM (active)

SMILES: NC(=O)c1ccccc1OCC(=O)Nc1ccc(Cl)c(Cl)c1
- IC50 [8]: 37.8 µM (active)
- IC50 [9]: 10.4 µM (active)
- EC50 [7]: > 260 µM (inconclusive)
- IC50 [10]: > 100 µM (inactive)
- IC50 [11]: > 100 µM (inactive)

SMILES: Cn1c(=O)c(-c2ccc(Cl)cc2)nc2cnc(N3CCOCC3)nc21
- AC50 [3]: inconclusive
- AC50 [12]: inconclusive

SMILES: O=C(O)c1cccc(NC(=O)c2cccc(S(=O)(=O)N3CCc4ccccc43)c2)c1
- IC50 [8]: 90.5 µM (active)
- IC50 [9]: 9.85 µM (active)
- IC50 [10]: 23.7 µM (active)
- IC50 [11]: 24.4 µM (active)

SMILES: COc1cc(NC(=O)c2cccc3c(-c4cnn(C)c4)coc23)cc(OC)c1OC
- IC50 [13]: > 79 µM (inactive)
- AC50 [14]: 24.3 µM (active)
- AC50 [15]: 17.9 µM (active)

SMILES: Cc1ccc2nc(N/C(N)=N/C(=O)NC3CCCCC3)nc(C)c2c1
- EC50 [16]: 5.35 µM (active)
- CC50 [17]: 21.1 µM (active)
- EC50 [18]: > 150 µM (not active)
- CC50 [19]: 23.2 µM (active)
- CC50 [20]: 18.5 µM (active)
- IC50 [21]: 3.74 µM (active)
